Laboratory results from PMC3203319 (The Journal of antibiotics, 2011).
Converted amounts (≈) assume the structure as drawn.

How the values were obtained:
[1] = test system: S.typhimurium ATCC 14028; experiment: MIC, Gram-negative panel; type: cell-based; conditions: Salmonella enterica, ATCC14028|TYPHIMURIUM
[2] = Liver S9 fraction stability; type: in vitro ADME, human
[3] = test system: P.aeruginosa FQR 467296; experiment: MIC, Gram-negative panel; type: cell-based; conditions: Pseudomonas aeruginosa, FQR467296
[4] = test system: S.aureus BSA 643; experiment: MIC, MRSA panel; type: cell-based; conditions: Staphylococcus aureus
[5] = Stability in dosing vehicle; type: physicochemical; conditions: potassium phosphate at pH 7.4, after 4 h
[6] = test system: E.faecium ATCC 49032; experiment: MIC, Gram-positive panel; type: cell-based; conditions: Enterococcus faecium, ATCC49032
[7] = test system: S.aureus COL; experiment: MIC, MRSA panel; type: cell-based; conditions: Staphylococcus aureus
[8] = Plasma stability; type: in vitro ADME; conditions: dog
[9] = test system: E.faecium (VR) ATCC 700221; experiment: MIC, Gram-positive panel; type: cell-based; conditions: Enterococcus faecium, ATCC700221
[10] = test system: C. albicans; experiment: MIC against yeast; type: cell-based; conditions: Candida albicans, read-out: MIC C. albicans
[11] = test system: A.baumanii ATCC 9957; experiment: MIC, Gram-negative panel; type: cell-based; conditions: Acinetobacter baumannii, ATCC9957
[12] = test system: E.faecalis ATCC 29212; experiment: MIC, Gram-positive panel; type: cell-based; conditions: Enterococcus faecalis, ATCC29212
[13] = Liver microsome stability; type: in vitro ADME; conditions: human liver microsomes (HLM)
[14] = test system: S.aureus BSA 678; experiment: MIC, MRSA panel; type: cell-based; conditions: Staphylococcus aureus
[15] = test system: E.cloacae ACH-0008; experiment: MIC, Gram-negative panel; type: cell-based; conditions: Enterobacter cloacae, ACH0008
[16] = test system: DNA, RNA, and protein synthesis in S. aureus ATCC 29213; experiment: Macromolecular synthesis assays; type: cell-based; conditions: 10× MIC, 20 min incubation
[17] = test system: rat red blood cell; experiment: Hemolysis, rat red blood cell assay; type: cell-based; conditions: rat red blood cells, data not shown
[18] = test system: MSSA; experiment: MIC assay with 50% mouse serum added; type: cell-based, S. aureus; conditions: fold shift in MIC with 50% mouse serum
[19] = Plasma stability; type: in vitro ADME; conditions: monkey
[20] = test system: S.haemolyticus (MS) ACH-0013; experiment: MIC, Gram-positive panel; type: cell-based; conditions: Staphylococcus haemolyticus
[21] = test system: E.coli 1GC2; experiment: MIC, Gram-negative panel; type: cell-based; conditions: Escherichia coli
[22] = test system: S.aureus ACH-0232; experiment: MIC, MRSA panel; type: cell-based; conditions: Staphylococcus aureus
[23] = test system: S.epidermidis (MS) SE42; experiment: MIC, Gram-positive panel; type: cell-based; conditions: Staphylococcus epidermidis
[24] = test system: S.epidermidis (FQR) ACH-0082; experiment: MIC, Gram-positive panel; type: cell-based; conditions: Staphylococcus epidermidis
[25] = test system: S.aureus ACH-0231; experiment: MIC, MRSA panel; type: cell-based; conditions: Staphylococcus aureus
[26] = test system: MRSA; experiment: MIC assay with 50% human serum added; type: cell-based, S. aureus; conditions: fold shift in MIC with 50% human serum
[27] = test system: E.faecalis (VR) ATCC 700802; experiment: MIC, Gram-positive panel; type: cell-based; conditions: Enterococcus faecalis, ATCC700802
[28] = test system: S.marcescens ACH-0009; experiment: MIC, Gram-negative panel; type: cell-based; conditions: Serratia marcescens, ACH0009
[29] = test system: K.pneumoniae ATCC 13883; experiment: MIC, Gram-negative panel; type: cell-based; conditions: Klebsiella pneumoniae, ATCC13883
[30] = test system: S.aureus ATCC 33591; experiment: MIC, MRSA panel; type: cell-based; conditions: Staphylococcus aureus, ATCC33591|MRSA
[31] = test system: S. aureus ATCC 29213; experiment: Time-kill study; type: cell-based; conditions: 2, 4 and 8 times the MIC, 24 h time course
[32] = Liver S9 fraction stability; type: in vitro ADME; conditions: rat liver S9 fraction (RLS9)
[33] = test system: S.aureus BK 2384; experiment: MIC, MRSA panel; type: cell-based; conditions: Staphylococcus aureus
[34] = test system: E.coli FQR 362265; experiment: MIC, Gram-negative panel; type: cell-based; conditions: Escherichia coli, FQR362265
[35] = Plasma stability; type: in vitro ADME; conditions: rat
[36] = Plasma stability; type: in vitro ADME; conditions: human
[37] = Liver microsome stability; type: in vitro ADME; conditions: rat liver microsomes (RLM)
[38] = test system: Gram-positive bacteria; experiment: MBC analysis, expanded panel of Gram-positive bacteria; type: cell-based; conditions: MIC = MBC
[39] = Plasma stability; type: in vitro ADME; conditions: mouse
[40] = test system: S.aureus NY 2746; experiment: MIC, MRSA panel; type: cell-based; conditions: Staphylococcus aureus

Q: With O=[N+]([O-])c1ccc(-c2nc3cccc(O)c3[nH]2)o1 [Compound 3e, 2-(5-Nitrofuran-2-yl)-3H-benzo[d]imidazole-4ol] as the compound, how does the MIC [1] read?
A: The MIC was 4 mg/L (≈ 16.3 µM).

Q: And the remaining ([2]; HLS9, after 60 min of incubation)?
A: Its remaining is 13%.

Q: What about the half-life ([2]; human, liver S9 fraction) of the same compound?
A: Its half-life is 0.21 h.

Q: And the MIC [3]?
A: Its MIC is greater than 64 mg/L.

Q: And the MIC [4]?
A: The MIC was 1 mg/L (≈ 4.08 µM).

Q: What about the “stability in dosing vehicle” value [5] of the same compound?
A: Its value is “no degradation”.

Q: What about the MIC [6] of the same compound?
A: The MIC was 4 mg/L (≈ 16.3 µM).

Q: And the MIC [7]?
A: Its MIC is 1 mg/L (≈ 4.08 µM).

Q: What about the half-life [8] of the same compound?
A: Its half-life is 5.6 h.

Q: What about the MIC [9] of the same compound?
A: Its MIC is 4 mg/L (≈ 16.3 µM).

Q: What about the MIC [10] of the same compound?
A: The MIC was greater than 64 mg/L.

Q: And the MIC [11]?
A: The MIC was greater than 64 mg/L.

Q: What about the MIC [12] of the same compound?
A: The MIC was 1 mg/L (≈ 4.08 µM).

Q: And the “time to complete clearance” value [13]?
A: The value was no more than 30 min.

Q: What about the MIC [14] of the same compound?
A: Its MIC is 1 mg/L (≈ 4.08 µM).

Q: What about the MIC [15] of the same compound?
A: The MIC was 4 mg/L (≈ 16.3 µM).

Q: What about the “inhibition of DNA, RNA and protein synthesis” value [16] of the same compound?
A: The value was “significantly inhibited DNA, RNA, and protein at nearly equivalent levels”.

Q: And the hemolysis [17]?
A: Its hemolysis is “negative”.

Q: And the “Fold Shift Mouse” value [18]?
A: The value was 4 ×.

Q: What about the half-life [19] of the same compound?
A: The half-life was 2 h.

Q: What about the MIC [20] of the same compound?
A: Its MIC is 0.5 mg/L (≈ 2.04 µM).

Q: What about the MIC [21] of the same compound?
A: The MIC was 16 mg/L (≈ 65.3 µM).

Q: And the MIC [22]?
A: The MIC was 2 mg/L (≈ 8.16 µM).

Q: And the MIC [23]?
A: The MIC was 1 mg/L (≈ 4.08 µM).

Q: What about the MIC [24] of the same compound?
A: Its MIC is 4 mg/L (≈ 16.3 µM).

Q: And the MIC [25]?
A: The MIC was 2 mg/L (≈ 8.16 µM).

Q: What about the “Fold Shift Human” value [26] of the same compound?
A: Its value is 4 ×.

Q: And the MIC [27]?
A: Its MIC is 1 mg/L (≈ 4.08 µM).

Q: What about the MIC [28] of the same compound?
A: Its MIC is 16 mg/L (≈ 65.3 µM).

Q: And the MIC [29]?
A: The MIC was 8 mg/L (≈ 32.6 µM).

Q: What about the MIC [30] of the same compound?
A: The MIC was 2 mg/L (≈ 8.16 µM).

Q: And the Time-kill result [31]?
A: The Time-kill result was “bactericidal”.

Q: What about the clearance time [32] of the same compound?
A: The clearance time was less than 30 min.

Q: What about the MIC [33] of the same compound?
A: Its MIC is 1 mg/L (≈ 4.08 µM).

Q: What about the MIC [34] of the same compound?
A: Its MIC is 4 mg/L (≈ 16.3 µM).

Q: What about the half-life [35] of the same compound?
A: Its half-life is 3.9 h.

Q: What about the half-life [36] of the same compound?
A: The half-life was 4.5 h.

Q: And the “time to complete clearance” value [37]?
A: The value was no more than 30 min.

Q: And the “bactericidal activity by MBC analysis” value [38]?
A: The value was “bactericidal”.

Q: And the half-life [39]?
A: The half-life was 3.6 h.

Q: What about the MIC [40] of the same compound?
A: The MIC was 2 mg/L (≈ 8.16 µM).

Q: With CN[C@H](CC(C)C)C(=O)N[C@H]1C(=O)N[C@@H](CC(N)=O)C(=O)N[C@H]2C(=O)N[C@H]3C(=O)N[C@H](C(=O)N[C@H](C(=O)O)c4cc(O)cc(O)c4-c4cc3ccc4O)[C@H](O)c3ccc(c(Cl)c3)Oc3cc2cc(c3O[C@@H]2O[C@H](CO)[C@@H](O)[C@H](O)[C@H]2O[C@H]2C[C@](C)(N)[C@H](O)[C@H](C)O2)Oc2ccc(cc2Cl)[C@H]1O [Vancomycin, reference compound] as the compound, how does the MIC [4] read?
A: The MIC was 1 mg/L (≈ 0.69 µM).

Q: And the MIC [7]?
A: The MIC was 1 mg/L (≈ 0.69 µM).

Q: What about the MIC [14] of the same compound?
A: Its MIC is 1 mg/L (≈ 0.69 µM).

Q: And the MIC [22]?
A: The MIC was 1 mg/L (≈ 0.69 µM).

Q: What about the MIC [25] of the same compound?
A: The MIC was 2 mg/L (≈ 1.38 µM).

Q: And the MIC [30]?
A: The MIC was 1 mg/L (≈ 0.69 µM).

Q: And the MIC [33]?
A: Its MIC is 1 mg/L (≈ 0.69 µM).

Q: What about the MIC [40] of the same compound?
A: The MIC was 1 mg/L (≈ 0.69 µM).
